Key:
Hepatocarcinoma HepG2 = experiment: Safety, MTT test in HepG2; assay type: cell-based; settings: 48 hours
Protocol: (§1) In order to test the safety of the compounds, both normal human cells were used: keratinocytes (HaCaT), fibroblasts (BJ), primary melanocytes that occur in the skin, as well as human cancer cells: the hepatocarcinoma line HepG2 and the neuroblastoma line SH-SY5Y, which are considered a model for the assessment of hepatocytotoxicity and neurocytotoxicity. The concentrations of the tested compounds in the range of 250-100 µM were used in the studies. The cell lines used in the research were purchased from the American Type Culture Collection (ATCC) and were cultured in media recommended by the manufacturer with the addition of FBS and antibiotics in an incubator ensuring appropriate culture conditions, i.e. humidity, temperature and CO2 concentration. Cells were seeded into multiwell plates and incubated with the test compounds for 48 hours. After this time, MTT and LDH tests were performed to assess cell viability. The MTT test is based on the ability to transform the substrate: [3-(4,5-dimethyl-2-thiazolyl)-2,5-diphenyl-2H-tetrazolium bromide into a colored product only by living cells. The absorbance at 570 nm, which corresponds to the absorption maximum for the product, is directly proportional to cell viability. The LDH test is based on testing the activity of the enzyme lactate dehydrogenase in the culture medium, which is released from cells as a result of damage to the cell membrane, e.g. as a result of cell death. Triton X-100 was used as a positive control in the test. The determination is colorimetric, the substrate is transformed by the released enzyme into a colored product, an increase in absorbance indicates a larger amount of the released enzyme, and thus confirms greater damage to cell membranes. Tables 7 and 8 present the results obtained, which correspond to the viability of cells incubated with the compounds in relation to the viability of cells constituting a control sample, i.e. incubated with the solvent (DMSO) at the same concentration as in the case of the groups tested in the MTT test or in relation to the results obtained for the Triton X-100 positive control in the LDH test. They indicate that the compounds are safe at the concentrations tested. Table 7. Viability of tested normal human cell lines: keratinocytes (HaCaT), fibroblasts (BJ) and primary melanocytes after incubation with the tested compounds - determination in the MTT test (% of solvent control ± SD) and LDH (percentage of positive control - Triton X-100.

neuroblastoma SH-SY5Y [1] = experiment: Safety, LDH test in SH-SY5Y; assay type: cell-based; settings: 48 hours, positive control Triton X-100
Protocol: as §1

S. typhimurium TA100 = experiment: Ames microplate test, TA100; assay type: cell-based, Salmonella typhimurium;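 further: reference level is the mean solvent-control yellow wells plus SD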
Protocol: (§2) Bacteria were grown overnight in growth medium.
(§3) Table 9. Ames microplate test results.

Primary melanocytes = experiment: Safety, LDH test in primary melanocytes; assay type: cell-based; settings: 48 hours, positive control Triton X-100
Protocol: as §1

S. typhimurium TA1535 = experiment: Ames microplate test, TA1535;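 further: bacteria exposed to compound 90 min at 37 °C, then kept 48 h at 37 °C with indicator medium in 384-well plates, scoring wells that turned yellow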
Protocol: (§4) The study used the Ames microplate test (Ames MPF™ Penta 2 by Xenometrix, Allschwil, Switzerland). Growth medium, exposure medium, indicator medium, positive controls, hepatic microsomal fraction, NADP, glucose-6-phosphate, Salmonella typhimurium and Escherichia coli strains were components of the purchased experimental kit. Bacteria were grown overnight in growth medium. They were then exposed to the test compound at the appropriate concentration in exposure medium without or with the rat microsomal fraction S9 in 24-well plates for 90 min at 37 °C with shaking. Then, indicator medium was added to the wells and pipetted into 384-well plates, which were incubated for 48 hours at 37 °C without shaking. Results were assessed by counting the wells in which the medium turned yellow for each experimental condition.

S. typhimurium TA98 = experiment: Ames microplate test, TA98; assay type: cell-based, Salmonella typhimurium;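 further: reference level is the mean solvent-control yellow wells plus SD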
Protocol: as §2, §3

Keratinocytes (HaCaT) [2] = experiment: Safety, MTT test in keratinocytes; assay type: cell-based; settings: 48 hours
Protocol: as §1

E. coli WP2 = experiment: Ames microplate test, E. coli WP2;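 further: bacteria treated 90 min at 37 °C in 24-well plates, then indicator medium dispensed to 384-well plates and incubated 48 h before yellow-well counting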
Protocol: as §4

Keratinocytes (HaCaT) [3] = experiment: Safety, LDH test in keratinocytes; assay type: cell-based; settings: 48 hours, positive control Triton X-100
Protocol: as §1

S. typhimurium TA1537 = experiment: Ames microplate test, TA1537; assay type: cell-based, Salmonella typhimurium;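 further: reference level is the mean solvent-control yellow wells plus SD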
Protocol: as §2, §3

[4] = test system: human reconstructed epidermis model EpiDerm™; experiment: Extended skin irritation test in reconstructed human epidermis (EpiDerm), 2 and 7 days; assay type: cell-based
Protocol: In order to perform extended skin irritation (safety) tests on the reconstructed human epidermis, the exposure time to the tested compounds was extended to 2 and 7 days in the human reconstructed epidermis model EpiDerm™ from MatTek. The epidermis was cultured according to the manufacturer's recommendations, using appropriate multi-well plates and culture media. Solutions of the tested compounds were applied to the epidermis using a positive displacement pipette and distributed using a sterile glass bulb headed Pasteur pipette. […] The epidermis was cultured in an incubator ensuring appropriate humidity, temperature (37 °C) and CO2 concentration (5%). The medium was replaced daily. After an appropriate incubation time, i.e. 2 days or 7 days, the epidermis was rinsed with sterile DPBS and incubated with MTT (Thiazolyl Blue Tetrazolium bromide) solution at 37 °C for 3 hours. After this time, a purple color of formazan was observed, correlated with tissue viability. […] Moreover, in the medium collected after the first 24 hours of EpiDerm epidermis culture, the level of interleukin 1α (Il-1α), which is a mediator of inflammation, was determined. Its level correlates with the unfavorable (irritating) effect of the tested substances on the epidermis. The level of IL-1α was determined using the Cayman Elisa test. […] Table 6. Viability results and results of interleukin 1α concentration measurement in the culture medium in the irritation test in the reconstructed human epidermis model EpiDerm.

neuroblastoma SH-SY5Y [5] = experiment: Safety, MTT test in SH-SY5Y; assay type: cell-based; settings: 48 hours
Protocol: as §1

O=C(/C=C/c1ccc(Cl)cc1)NCCCCCO [Compound A-111, (2E)-3-(4-chlorophenyl)-N-(5-hydroxypentyl)prop-2-enamide]
Hepatocarcinoma HepG2 MTT (Hepatocarcinoma HepG2; 100 µM): 101.10±6.01 % of solvent control
Hepatocarcinoma HepG2 MTT (Hepatocarcinoma HepG2; 150 µM): 97.87±3.27 % of solvent control
Hepatocarcinoma HepG2 MTT (Hepatocarcinoma HepG2; 200 µM): 98.19±3.27 % of solvent control
Hepatocarcinoma HepG2 MTT (Hepatocarcinoma HepG2; 250 µM): 96.27±2.57 % of solvent control
Neuroblastoma SH-SYSY LDH (neuroblastoma SH-SY5Y [1]; 100 µM): 4.90 percentage of positive control
Neuroblastoma SH-SYSY LDH (neuroblastoma SH-SY5Y [1]; 150 µM): 4.61 percentage of positive control
Neuroblastoma SH-SYSY LDH (neuroblastoma SH-SY5Y [1]; 200 µM): 5.98 percentage of positive control
Neuroblastoma SH-SYSY LDH (neuroblastoma SH-SY5Y [1]; 250 µM): 6.77 percentage of positive control
Increase in the number of yellow wells compared to the reference level (S. typhimurium TA100; 0.5 mM, +S9): 0.97
Increase in the number of yellow wells compared to the reference level (S. typhimurium TA100; 0.5 mM, without S9): 0.74
Increase in the number of yellow wells compared to the reference level (S. typhimurium TA100; 1.0 mM, +S9): 0.47
Increase in the number of yellow wells compared to the reference level (S. typhimurium TA100; 1.0 mM, without S9): 0.39
Increase in the number of yellow wells compared to the reference level (S. typhimurium TA100; 2.0 mM, +S9): 0.67
Increase in the number of yellow wells compared to the reference level (S. typhimurium TA100; 2.0 mM, without S9): 0.42
Primary melanocytes LDH (Primary melanocytes; 100 µM): 3.31 percentage of positive control
Primary melanocytes LDH (Primary melanocytes; 150 µM): 4.95 percentage of positive control
Primary melanocytes LDH (Primary melanocytes; 200 µM): 13.38 percentage of positive control
Primary melanocytes LDH (Primary melanocytes; 250 µM): 18.41 percentage of positive control
Increase in the number of yellow wells compared to the reference level (S. typhimurium TA1535; 0.5 mM, +S9): 0.58
Increase in the number of yellow wells compared to the reference level (S. typhimurium TA1535; 0.5 mM, without S9): 0.55
Increase in the number of yellow wells compared to the reference level (S. typhimurium TA1535; 1.0 mM, +S9): 0.35
Increase in the number of yellow wells compared to the reference level (S. typhimurium TA1535; 1.0 mM, without S9): 0.18
Increase in the number of yellow wells compared to the reference level (S. typhimurium TA1535; 2.0 mM, +S9): 0.23
Increase in the number of yellow wells compared to the reference level (S. typhimurium TA1535; 2.0 mM, without S9): 1.65
Increase in the number of yellow wells compared to the reference level (S. typhimurium TA98; 0.5 mM, +S9): 1.50
Increase in the number of yellow wells compared to the reference level (S. typhimurium TA98; 0.5 mM, without S9): 0.7
Increase in the number of yellow wells compared to the reference level (S. typhimurium TA98; 1.0 mM, +S9): 0.83
Increase in the number of yellow wells compared to the reference level (S. typhimurium TA98; 1.0 mM, without S9): 0.44
Increase in the number of yellow wells compared to the reference level (S. typhimurium TA98; 2.0 mM, +S9): 1.50
Increase in the number of yellow wells compared to the reference level (S. typhimurium TA98; 2.0 mM, without S9): 1.00
Keratinocytes (HaCaT) MTT (Keratinocytes (HaCaT) [2]; 100 µM): 101.68±3.45 % of solvent control
Keratinocytes (HaCaT) MTT (Keratinocytes (HaCaT) [2]; 150 µM): 101.56±1.94 % of solvent control
Keratinocytes (HaCaT) MTT (Keratinocytes (HaCaT) [2]; 200 µM): 101.04±2.77 % of solvent control
Keratinocytes (HaCaT) MTT (Keratinocytes (HaCaT) [2]; 250 µM): 91.57±2.10 % of solvent control
Increase in the number of yellow wells compared to the reference level (E. coli WP2; 0.5 mM, +S9): 0.62
Increase in the number of yellow wells compared to the reference level (E. coli WP2; 0.5 mM, without S9): 1.46
Increase in the number of yellow wells compared to the reference level (E. coli WP2; 1.0 mM, +S9): 0.71
Increase in the number of yellow wells compared to the reference level (E. coli WP2; 1.0 mM, without S9): 1.10
Increase in the number of yellow wells compared to the reference level (E. coli WP2; 2.0 mM, +S9): 0.98
Increase in the number of yellow wells compared to the reference level (E. coli WP2; 2.0 mM, without S9): 1.10
Keratinocytes (HaCaT) LDH (Keratinocytes (HaCaT) [3]; 100 µM): 4.69 percentage of positive control
Keratinocytes (HaCaT) LDH (Keratinocytes (HaCaT) [3]; 150 µM): 4.43 percentage of positive control
Keratinocytes (HaCaT) LDH (Keratinocytes (HaCaT) [3]; 200 µM): 6.49 percentage of positive control
Keratinocytes (HaCaT) LDH (Keratinocytes (HaCaT) [3]; 250 µM): 13.55 percentage of positive control
Increase in the number of yellow wells compared to the reference level (S. typhimurium TA1537; 0.5 mM, +S9): 0.27
Increase in the number of yellow wells compared to the reference level (S. typhimurium TA1537; 0.5 mM, without S9): 0.80
Increase in the number of yellow wells compared to the reference level (S. typhimurium TA1537; 1.0 mM, +S9): 0.45
Increase in the number of yellow wells compared to the reference level (S. typhimurium TA1537; 1.0 mM, without S9): 0.54
Increase in the number of yellow wells compared to the reference level (S. typhimurium TA1537; 2.0 mM, +S9): 0.27
Increase in the number of yellow wells compared to the reference level (S. typhimurium TA1537; 2.0 mM, without S9): 0.54
Il-1α in culture medium ([4]; 1.0% in 50% PEG (10 µL), medium after the first 24 hours): 15.89 ± .057 pg/mL
Viability [% of control, mean±SD] ([4]; 2 days, 0.1% in 50% PEG (10 µL)): 88.42±1.25 % of control
Viability [% of control, mean±SD] ([4]; 2 days, 0.5% in 50% PEG (10 µL)): 92.02±3.47 % of control
Viability [% of control, mean±SD] ([4]; 2 days, 1.0% in 50% PEG (10 µL)): 98.56±11.78 % of control
Viability [% of control, mean±SD] ([4]; 7 days, 0.1% in 50% PEG (10 µL)): 107.77±3.12 % of control
Viability [% of control, mean±SD] ([4]; 7 days, 0.5% in 50% PEG (10 µL)): 113.85±4.03 % of control
Viability [% of control, mean±SD] ([4]; 7 days, 1.0% in 50% PEG (10 µL)): 100.41±1.52 % of control
Neuroblastoma SH-SYSY MTT (neuroblastoma SH-SY5Y [5]; 100 µM): 100.14±3.22 % of solvent control
Neuroblastoma SH-SYSY MTT (neuroblastoma SH-SY5Y [5]; 150 µM): 99.32±3.36 % of solvent control
Neuroblastoma SH-SYSY MTT (neuroblastoma SH-SY5Y [5]; 200 µM): 100.55±2.31 % of solvent control
Neuroblastoma SH-SYSY MTT (neuroblastoma SH-SY5Y [5]; 250 µM): 99.93±4.36 % of solvent control

From patent EP4324461A1, “(E)-N-CINAMOYLAMINOALKANOLES WITH MELANOGENESIS INHIBITORY ACTIVITY” (UNIWERSYTET JAGIELLONSKI, priority 2022, dated 2024)
